Patent US10005792B2, “Aminoindane-, aminotetrahydronaphthalene- and aminobenzocyclobutane-derived PRMT5-inhibitors” (CTXT PTY LTD, priority 2014, dated 2018)
Where a name gives a salt, the structure may show the parent alone.

The compounds below were run against Full-length PRMT5 enzyme co-expressed with MEP50 (Homo sapiens (Human), UniProt O14744) (assay: Revised PRMT5 Biochemical Assay). Conditions: 1 μM histone H4 derived peptide substrate, 1 μM S-Adenosyl methionine, 4 hours at 37 degree Celsius, Transcreener EPIGEN fluorescence polarisation.
Procedure: Compounds of the invention may be tested for in vitro activity in the following assay: A histone H4 derived peptide is used as substrate (amino acid sequence: […]NH2). Full-length PRMT5 enzyme (NCBI Reference sequence NP-006100.2) was co-expressed with Hiss-MEP50 in insect cells and purified via Nickel immobilized metal affinity and gel filtration chromatography (“the enzyme”).
The 6 μL reactions are run in Greiner brand black 384-well low volume assay plates. All reactions contained assay buffer (phosphate buffered saline, 0.01% (v/v) Tween-20, 0.01% (w/v) albumin from chicken egg white, 1 mM Dithiothreitol, 1 μM peptide substrate, 1 μM S-Adenosyl methionine, and 15 ng/reaction enzyme, with the enzyme being omitted from negative control reactions. Compounds were added in a volume of 100 nL from dilution series prepared in DMSO, positive and negative control reactions receiving the same volume DMSO without compound. The plates were sealed with adhesive seals and incubated for 4 hours at 37 degree Celsius. Reaction progress was measured using the Transcreener™ EPIGEN methyltransferase assay (BellBrook Labs, Madison, Wis.) as recommended by the manufacturer. To each reaction 2 μL detection mix were added, containing coupling enzymes, fluorescence polarisation tracer, and AMP antibody. Plates were incubated for 90 minutes before being read on a PerkinElmer EnVision™ plate reader in fluorescence polarisation mode. IC50 values were obtained from the raw readings by calculating percent inhibition (% I) for each reaction relative to controls on the same plate (% I=(I−CN)/(CP−CN) where CN/CP are the averages of the negative/positive reactions, respectively), then fitting the % I data vs. compound concentration [I] to % I=([…]) where A is the lower asymptote, B is the upper asymptote, C is the IC50 value, and D is the slope.

Chain of Full-length PRMT5 enzyme co-expressed with MEP50 (O14744 whole entry): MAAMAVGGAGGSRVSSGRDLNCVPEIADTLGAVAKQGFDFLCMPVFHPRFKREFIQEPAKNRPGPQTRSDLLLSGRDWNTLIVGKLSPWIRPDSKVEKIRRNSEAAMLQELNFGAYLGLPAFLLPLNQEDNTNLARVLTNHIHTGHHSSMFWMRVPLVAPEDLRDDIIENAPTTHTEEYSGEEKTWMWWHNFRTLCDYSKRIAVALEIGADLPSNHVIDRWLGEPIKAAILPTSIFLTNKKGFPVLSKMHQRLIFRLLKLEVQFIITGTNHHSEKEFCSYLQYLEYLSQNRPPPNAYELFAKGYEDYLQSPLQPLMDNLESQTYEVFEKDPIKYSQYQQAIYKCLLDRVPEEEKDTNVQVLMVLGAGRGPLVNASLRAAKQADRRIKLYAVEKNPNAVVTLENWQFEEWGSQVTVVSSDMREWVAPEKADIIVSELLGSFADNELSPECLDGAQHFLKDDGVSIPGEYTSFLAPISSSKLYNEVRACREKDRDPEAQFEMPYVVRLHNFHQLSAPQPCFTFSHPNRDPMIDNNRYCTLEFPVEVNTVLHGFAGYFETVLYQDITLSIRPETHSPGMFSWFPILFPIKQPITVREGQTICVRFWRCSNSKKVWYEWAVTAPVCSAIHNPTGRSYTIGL
Chain of Full-length PRMT5 enzyme co-expressed with MEP50 (Q9BQA1 whole entry partner): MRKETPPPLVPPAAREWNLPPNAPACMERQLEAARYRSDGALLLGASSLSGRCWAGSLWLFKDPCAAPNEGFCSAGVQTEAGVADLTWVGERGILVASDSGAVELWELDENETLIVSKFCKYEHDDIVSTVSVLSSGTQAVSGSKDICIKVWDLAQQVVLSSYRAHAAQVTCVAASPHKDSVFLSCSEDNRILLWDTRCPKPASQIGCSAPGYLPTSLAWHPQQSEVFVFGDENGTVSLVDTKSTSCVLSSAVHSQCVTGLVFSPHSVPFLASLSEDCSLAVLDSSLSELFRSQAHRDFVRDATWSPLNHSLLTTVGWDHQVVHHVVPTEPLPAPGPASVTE

**Q.** With `O=C(NCC(O)CNC1Cc2ccccc2C1)c1ccc(C(=O)N2CCCCC2)nc1` (racemic) [Compound 67, N-(3-((2,3-dihydro-1H-inden-2-yl)amino)-2-hydroxypropyl)-6-(piperidine-1-carbonyl)nicotinamide] as the compound, how does the IC50 read?
**A.** Its IC50 is 6.87 µM.

**Q.** `CCCOc1ccccc1C(=O)NCC(O)CNC1Cc2ccccc2C1` (racemic) [Compound 73, N-(3-((2,3-dihydro-1H-inden-2-yl)amino)-2-hydroxypropyl)-2-propoxybenzamide] was tested. Which IC50 did it give?
**A.** The IC50 was 4.38 µM.

**Q.** Which IC50 does the source give for `CC(C)Oc1ccccc1C(=O)NCC(O)CNC1Cc2ccccc2C1` (racemic) [Compound 74, N-(3-((2,3-dihydro-1H-inden-2-yl)amino)-2-hydroxypropyl)-2-isopropoxybenzamide] here?
**A.** The IC50 was 3.13 µM.

**Q.** Which IC50 does the source give for `COCc1ccccc1C(=O)NCC(O)CNC1Cc2ccccc2C1` (racemic) [Compound 79, N-(3-((2,3-dihydro-1H-inden-2-yl)amino)-2-hydroxypropyl)-2-(methoxymethyl)benzamide] here?
**A.** Its IC50 is 24 µM.

**Q.** With `O=C(NCC(O)CNC1Cc2ccccc2C1)c1ccn(Cc2ccccc2)c(=O)c1` (racemic) [Compound 82, 1-benzyl-N-(3-((2,3-dihydro-1H-inden-2-yl)amino)-2-hydroxypropyl)-2-oxo-1,2-dihydropyridine-4-carboxamide] as the compound, how does the IC50 read?
**A.** Its IC50 is 1.81 µM.

**Q.** `CC(=O)N1CCN(C(=O)Cc2ccc(C(=O)NCC(O)CNC3Cc4ccccc4C3)cc2)CC1` (racemic) [Compound 83, 4-(2-(4-acetylpiperazin-1-yl)-2-oxoethyl)-N-(3-((2,3-dihydro-1H-inden-2-yl)amino)-2-hydroxypropyl)benzamide] was tested. Which IC50 did it give?
**A.** The IC50 was 3.46 µM.

**Q.** For `CC(=O)N1CCN(C(=O)c2ccc(C(=O)NCC(O)CNC3Cc4ccccc4C3)cc2)CC1` (racemic) [Compound 84, 4-(4-acetylpiperazine-1-carbonyl)-N-(3-((2,3-dihydro-1H-inden-2-yl)amino)-2-hydroxypropyl)benzamide], which IC50 is on record?
**A.** Its IC50 is 0.585 µM.

**Q.** With `Cn1ccc(C(=O)NCC(O)CNC2Cc3ccccc3C2)cc1=O` (racemic) [Compound 85, N-(3-((2,3-dihydro-1H-inden-2-yl)amino)-2-hydroxypropyl)-1-methyl 2-oxo-1,2-dihydropyridine-4-carboxamide] as the compound, how does the IC50 read?
**A.** The IC50 was 7.68 µM.

**Q.** Which IC50 does the source give for `O=C(NCC(O)CNC1Cc2ccccc2C1)c1ccc2c(c1)CN(C(=O)CC1CC1)C2` (racemic) [Compound 92, 2-(2-cyclopropylacetyl)-N-(3-((2,3-dihydro-1H-inden-2-yl)amino)-2-hydroxypropyl)isoindoline-5-carboxamide] here?
**A.** The IC50 was 1.38 µM.

**Q.** Which IC50 does the source give for `O=C(NCC(O)CNC1Cc2ccccc2C1)c1ccc2c(c1)CN(C(=O)CC1CC1)CC2` (racemic) [Compound 93, 2-(2-cyclopropylacetyl)-N-(3-((2,3-dihydro-1H-inden-2-yl)amino)-2-hydroxypropyl)-1,2,3,4-tetrahydroisoquinoline-7-carboxamide] here?
**A.** The IC50 was 0.505 µM.

**Q.** With `O=C(NCC(O)CNC1Cc2ccccc2C1)c1ccc2c(c1)CCN(C(=O)CC1CC1)C2` (racemic) [Compound 94, 2-(2-cyclopropylacetyl)-N-(3-((2,3-dihydro-1H-inden-2-yl)amino)-2-hydroxypropyl)-1,2,3,4-tetrahydroisoquinoline-6-carboxamide] as the compound, how does the IC50 read?
**A.** Its IC50 is 1.35 µM.

**Q.** Which IC50 does the source give for `CC(=O)N1CCc2cc(C(=O)NCC(O)CNC3Cc4ccccc4C3)ccc2C1` (racemic) [Compound 95, 2-acetyl-N-(3-((2,3-dihydro-1H-inden-2-yl)amino)-2-hydroxypropyl)-1,2,3,4-tetrahydroisoquinoline-6-carboxamide] here?
**A.** Its IC50 is 0.931 µM.

**Q.** Which IC50 does the source give for `CC(=O)N1CCc2ccc(C(=O)NCC(O)CNC3Cc4ccccc4C3)cc2C1` (racemic) [Compound 96, 2-acetyl-N-(3-((2,3-dihydro-1H-inden-2-yl)amino)-2-hydroxypropyl)-1,2,3,4-tetrahydroisoquinoline-7-carboxamide] here?
**A.** The IC50 was 0.733 µM.

**Q.** For `O=C(NCC(O)CNC1Cc2ccccc2C1)c1ccccc1OCC(F)(F)F` (racemic) [Compound 97, N-(3-((2,3-dihydro-1H-inden-2-yl)amino)-2-hydroxypropyl)-2-(2,2,2-trifluoroethoxy)benzamide], which IC50 is on record?
**A.** Its IC50 is 4.32 µM.

**Q.** How did the IC50 turn out when `C[C@@H]1COC[C@@H](C)N1C(=O)c1ccc(C(=O)NCC(O)CNC2Cc3ccccc3C2)cc1` (mixture of isomers) [Compound 101, N-(3-((2,3-dihydro-1H-inden-2-yl)amino)-2-hydroxypropyl)-4-((3R,5R)-3,5-dimethylmorpholine-4-carbonyl)benzamide] was run?
**A.** Its IC50 is 0.457 µM.

**Q.** For `CC(=O)N1CCC(Nc2cccc(C(=O)NC[C@@H](O)CNC3Cc4ccccc4C3)c2)CC1` [Compound 42, (S)-3-((1-Acetylpiperidin-4-yl)amino)-N-(3-((2,3-dihydro-1H-inden-2-yl)amino)-2-hydroxypropyl)benzamide], which IC50 is on record?
**A.** Its IC50 is 0.137 µM.

**Q.** `CN(c1cc(C(=O)NCC(O)CNC2Cc3ccccc3C2)ccn1)C1CCCC1` (stereo not shown) [Compound 43, 2-(cyclopentyl(methyl)amino)-N-(3-((2,3-dihydro-1H-inden-2-yl)amino)-2-hydroxypropyl)isonicotinamide] was tested. Which IC50 did it give?
**A.** The IC50 was 1.01 µM.

**Q.** With `O=C(NCC(O)CNC1Cc2ccccc2C1)c1ccnc(NC2CCCC2)c1` (stereo not shown) [Compound 44, 2-(cyclopentylamino)-N-(3-((2,3-dihydro-1H-inden-2-yl)amino)-2-hydroxypropyl)isonicotinamide] as the compound, how does the IC50 read?
**A.** Its IC50 is 0.373 µM.

**Q.** `O=C(NCC(O)CNC1Cc2ccccc2C1)c1cc(-c2ccccn2)[nH]n1` (stereo not shown) [Compound 45, N-(3-((2,3-dihydro-1H-inden-2-yl)amino)-2-hydroxypropyl)-5-(pyridin-2-yl)-1H-pyrazole-3-carboxamide] was tested. Which IC50 did it give?
**A.** Its IC50 is 12.8 µM.

**Q.** For `O=C(NCC(O)CNC1Cc2ccccc2C1)c1cnn(-c2cccnc2)c1` (stereo not shown) [Compound 46, N-(3-((2,3-dihydro-1H-inden-2-yl)amino)-2-hydroxypropyl)-1-(pyridin-3-yl)-1H-pyrazole-4-carboxamide], which IC50 is on record?
**A.** The IC50 was 4.99 µM.

**Q.** How did the IC50 turn out when `O=C(NCC(O)CNC1Cc2ccccc2C1)c1ccnc(N2CCOCC2)c1` (stereo not shown) [Compound 47, N-(3-((2,3-dihydro-1H-inden-2-yl)amino)-2-hydroxypropyl)-2-morpholinoisonicotinamide] was run?
**A.** Its IC50 is 11.4 µM.

**Q.** With `O=C(NCC(O)CNC1Cc2ccccc2C1)c1ccnc(N2CCCC2)c1` (stereo not shown) [Compound 48, N-(3-((2,3-dihydro-1H-inden-2-yl)amino)-2-hydroxypropyl)-2-(pyrrolidin-1-yl)isonicotinamide] as the compound, how does the IC50 read?
**A.** Its IC50 is 4.78 µM.

**Q.** For `O=C(NCC(O)CNC1Cc2ccccc2C1)c1ccnc(-n2cccn2)c1` (stereo not shown) [Compound 49, N-(3-((2,3-dihydro-1H-inden-2-yl)amino)-2-hydroxypropyl)-2-(1H-pyrazol-1-yl)isonicotinamide], which IC50 is on record?
**A.** The IC50 was 25.3 µM.

**Q.** How did the IC50 turn out when `CC(=O)N1CCC(Oc2cc(C(=O)NCC(O)CNC3Cc4ccccc4C3)ccn2)CC1` (stereo not shown) [Compound 50, 2-((1-Acetylpiperidin-4-yl)oxy)-N-(3-((2,3-dihydro-1H-inden-2-yl)amino)-2-hydroxypropyl)isonicotinamide] was run?
**A.** Its IC50 is 0.466 µM.

**Q.** For `O=C(NCC(O)CNC1Cc2ccccc2C1)c1ccnc(OC2CCNCC2)c1` (stereo not shown) [Compound 51, N-(3-((2,3-dihydro-1H-inden-2-yl)amino)-2-hydroxypropyl)-2-(piperidin-4-yloxy)isonicotinamide], which IC50 is on record?
**A.** The IC50 was 0.709 µM.

**Q.** Which IC50 does the source give for `CC(=O)N1CCC(Nc2cncc(C(=O)NCC(O)CNC3Cc4ccccc4C3)n2)CC1` (stereo not shown) [Compound 52, 6-((1-Acetylpiperidin-4-yl)amino)-N-(3-((2,3-dihydro-1H-inden-2-yl)amino)-2-hydroxypropyl)pyrazine-2-carboxamide] here?
**A.** The IC50 was 74.6 µM.

**Q.** With `CC(=O)N1CCC(Nc2nccc(C(=O)NCC(O)CNC3Cc4ccccc4C3)n2)CC1` (stereo not shown) [Compound 54, 2-((1-Acetylpiperidin-4-yl)amino)-N-(3-((2,3-dihydro-1H-inden-2-yl)amino)-2-hydroxypropyl)pyrimidine-4-carboxamide] as the compound, how does the IC50 read?
**A.** Its IC50 is 5.77 µM.

**Q.** With `CC(=O)N1CCC(Nc2cccc(C(=O)NCC(O)CNC3Cc4ccccc4C3)n2)CC1` (stereo not shown) [Compound 57, 6-((1-Acetylpiperidin-4-yl)amino)-N-(3-((2,3-dihydro-1H-inden-2-yl)amino)-2-hydroxypropyl)picolinamide] as the compound, how does the IC50 read?
**A.** Its IC50 is 2.53 µM.

**Q.** How did the IC50 turn out when `CC(=O)N1CC(Nc2cc(C(=O)NCC(O)CNC3Cc4ccccc4C3)ncn2)C1` (stereo not shown) [Compound 58, 6-((1-Acetylazetidin-3-yl)amino)-N-(3-((2,3-dihydro-1H-inden-2-yl)amino)-2-hydroxypropyl)pyrimidine-4-carboxamide 2,2,2-trifluoroacetic acid salt] was run?
**A.** The IC50 was 0.883 µM.

**Q.** With `CC(=O)N1CCC(Nc2cc(C(=O)NCC(O)CNC3Cc4ccccc4C3)ncn2)CC1` (stereo not shown) [Compound 59, 6-((1-Acetylpiperidin-4-yl)amino)-N-(3-((2,3-dihydro-1H-inden-2-yl)amino)-2-hydroxypropyl)pyrimidine-4-carboxamide 2,2,2-trifluoroacetic acid salt] as the compound, how does the IC50 read?
**A.** Its IC50 is 0.487 µM.

**Q.** `O=C(NC[C@@H](O)CNC1Cc2ccccc2C1)c1ccc(C(=O)N2CCC(O)CC2)cc1` [Compound 60, (S)-N-(3-((2,3-dihydro-1H-inden-2-yl)amino)-2-hydroxypropyl)-4-(4-hydroxypiperidine-1-carbonyl)benzamide] was tested. Which IC50 did it give?
**A.** Its IC50 is 0.63 µM.
